This passage reports pest or weed control results from patent US4496551A (priority 1983, dated 1985).

For the first assay, the system named is Rhizoctonia solani. As to the kind of experiment: rice sheath blight control on rice seedlings. Type of assay: in vivo. The settings on record: Rhizoctonia solani, 168 h, 7 days. How it is done:
Several compounds of the previous examples were again dissolved in acetone in an amount equal to 6% of the final volume and then suspended at a concentration of 100 ppm in purified water containing 250 ppm of the surfactant TREM 014 (polyhydric alcohol esters). This suspension was sprayed to the point of run-off on rice seedlings. The following day, the plants were inoculated with a mixture of bran and the mycelium of Rhizoctonia solani, causal agent of sheath blight of rice, and incubated in a growth room for 7 days. Disease ratings were then made. Treated plants from successful treatments had little sheath blight in contrast to untreated plants which were covered with sheath blight.
Molecule `COc1ccc([Si](C)(Cn2ccnc2)c2ccc(OC)cc2)cc1` [(1H-Imidazol-1-ylmethyl)[bis(4-methoxyphenyl)]methylsilane] displayed a pest or weed control at 100 ppm of 0%.
In the case of `CC(C)O[Si](C)(Cn1ccnc1)c1ccccc1` (centres unmarked) [(1H-Imidazol-1-ylmethyl)methyl(phenyl)(2-propoxy)silane], the pest or weed control at 100 ppm came to 0%.
`CC(C)O[Si](Cn1ccnc1)(OC(C)C)c1ccccc1` [(1H-Imidazol-1-ylmethyl)phenylbis(2-propoxy)silane] came in with a pest or weed control at 100 ppm of 0%.
Take `COc1cccc([Si](C)(C)Cn2ccnc2)c1OC` [(2,3-Dimethoxyphenyl)(1H-imidazol-1-ylmethyl)dimethylsilane]: the pest or weed control at 100 ppm came out at 0%.
With `C[Si](Cn1ccnc1)(c1ccccc1)c1ccc(Cl)cc1Cl` (centres unmarked) [(2,4-Dichlorophenyl)(1H-imidazol-1-ylmethyl)methyl(phenyl)silane], the pest or weed control at 100 ppm was determined as 0%.
Take `C[Si](Cn1ccnc1)(c1ccc(Cl)cc1)c1ccccc1Cl` (centres unmarked) [(2-Chlorophenyl)(4-chlorophenyl)(1H-imidazol-1-ylmethyl)methylsilane]: the pest or weed control at 100 ppm was 0%.
Consider `CC(n1ccnc1)[Si](C)(c1ccc(F)cc1)c1ccc(F)cc1` (centres unmarked) [bis(4-Fluorophenyl)methyl[1-(1H-imidazol-1-yl)ethyl]silane], for which the pest or weed control at 100 ppm turned out to be 90%.

For another assay, the system named is Cercospora arachidicola. Put plainly: peanut early leafspot control on peanut seedlings. It counts as in vivo. The settings on record: Mycosphaerella arachidis, 336 h. The procedure:
Compounds of the previous examples were again dissolved in acetone in an amount equal to 6% of the final volume and then suspended at a concentration of 100 ppm in purified water containing 250 ppm of the surfactant TREM 014 (polyhydric alcohol esters). This suspension was sprayed to the point of run-off on peanut seedlings. The following day, the plants were inoculated with a spore suspension of Cercospora arachidicola, causal agent of peanut early leafspot, and incubated in a saturated humidity chamber at 27° for 24 hours and then in a growth room for an additional 14 days, when disease ratings were made. Treated plants from successful treatments had few or no leafspots while the untreated plants had numerous leafspots on each leaf.
`COc1ccc([Si](C)(Cn2ccnc2)c2ccc(OC)cc2)cc1` [(1H-Imidazol-1-ylmethyl)[bis(4-methoxyphenyl)]methylsilane]: the pest or weed control at 100 ppm was found to be 0%.
On to `CC(C)O[Si](C)(Cn1ccnc1)c1ccccc1` (centres unmarked) [(1H-Imidazol-1-ylmethyl)methyl(phenyl)(2-propoxy)silane], for which the pest or weed control at 100 ppm was found to be 0%.
The molecule `CC(C)O[Si](Cn1ccnc1)(OC(C)C)c1ccccc1` [(1H-Imidazol-1-ylmethyl)phenylbis(2-propoxy)silane] yielded a pest or weed control at 100 ppm of 0%.
`COc1cccc([Si](C)(C)Cn2ccnc2)c1OC` [(2,3-Dimethoxyphenyl)(1H-imidazol-1-ylmethyl)dimethylsilane] registered a pest or weed control at 100 ppm of 0%.
In turn, `C[Si](Cn1ccnc1)(c1ccccc1)c1ccc(Cl)cc1Cl` (centres unmarked) [(2,4-Dichlorophenyl)(1H-imidazol-1-ylmethyl)methyl(phenyl)silane] came in with a pest or weed control at 100 ppm of 100%.
Same read-out and setting: the result for `C[Si](Cn1ccnc1)(c1ccc(Cl)cc1)c1ccccc1Cl` (centres unmarked) [(2-Chlorophenyl)(4-chlorophenyl)(1H-imidazol-1-ylmethyl)methylsilane] reads 80%; that for `CC(n1ccnc1)[Si](C)(c1ccc(F)cc1)c1ccc(F)cc1` (centres unmarked) [bis(4-Fluorophenyl)methyl[1-(1H-imidazol-1-yl)ethyl]silane], 0%.

The next assay deals with Phytophthora infestans. Put plainly: whole plant or invertebrate. Type of assay: in vivo. As to conditions: Phytophthora infestans, in Solanum lycopersicum, 168 h, read-out: % Control of Tomato Late Blight.
On to `COc1ccc([Si](C)(Cn2ccnc2)c2ccc(OC)cc2)cc1` [(1H-Imidazol-1-ylmethyl)[bis(4-methoxyphenyl)]methylsilane], for which the pest or weed control at 100 ppm was 0%.
For the molecule `CC(C)O[Si](C)(Cn1ccnc1)c1ccccc1` (centres unmarked) [(1H-Imidazol-1-ylmethyl)methyl(phenyl)(2-propoxy)silane], the pest or weed control at 100 ppm stood at 0%.
As to `CC(C)O[Si](Cn1ccnc1)(OC(C)C)c1ccccc1` [(1H-Imidazol-1-ylmethyl)phenylbis(2-propoxy)silane], the pest or weed control at 100 ppm came to 0%.
For `COc1cccc([Si](C)(C)Cn2ccnc2)c1OC` [(2,3-Dimethoxyphenyl)(1H-imidazol-1-ylmethyl)dimethylsilane], the pest or weed control at 100 ppm amounted to 0%.
Take `C[Si](Cn1ccnc1)(c1ccccc1)c1ccc(Cl)cc1Cl` (centres unmarked) [(2,4-Dichlorophenyl)(1H-imidazol-1-ylmethyl)methyl(phenyl)silane]: the pest or weed control at 100 ppm came out at 0%.
Regarding `C[Si](Cn1ccnc1)(c1ccc(Cl)cc1)c1ccccc1Cl` (centres unmarked) [(2-Chlorophenyl)(4-chlorophenyl)(1H-imidazol-1-ylmethyl)methylsilane], the pest or weed control at 100 ppm stood at 0%.
Take `CC(n1ccnc1)[Si](C)(c1ccc(F)cc1)c1ccc(F)cc1` (centres unmarked) [bis(4-Fluorophenyl)methyl[1-(1H-imidazol-1-yl)ethyl]silane]: the pest or weed control at 100 ppm is 0%.

The subject of another assay is Puccinia recondita var. tritici. Put plainly: wheat leaf rust control on wheat seedlings. Type of assay: in vivo. The settings on record: 100 ppm, sprayed day before inoculation. The procedure:
(§1) Compounds of this invention were dissolved in acetone in an amount equal to 6% of the final volume and then suspended at a concentration of 100 ppm in purified water containing 250 ppm of the surfactant TREM 014 (polyhydric alcohol esters). This suspension was sprayed to the point of run-off on wheat seedlings. The following day, the plants were inoculated with a spore suspension of Puccinia recondita var. tritici, causal agent of wheat leaf rust, and incubated in a saturated humidity chamber at 20° for 24 hours and then in a growth room for an additional 7 days, when disease ratings were made. Treated plants from successful treatments had few or no rust pustules while the untreated plants had numerous rust pustules on each leaf.
`COc1ccc([Si](C)(Cn2ccnc2)c2ccc(OC)cc2)cc1` [(1H-Imidazol-1-ylmethyl)[bis(4-methoxyphenyl)]methylsilane]: the pest or weed control at 100 ppm was found to be 0%.
As to `CC(C)O[Si](C)(Cn1ccnc1)c1ccccc1` (centres unmarked) [(1H-Imidazol-1-ylmethyl)methyl(phenyl)(2-propoxy)silane], the pest or weed control at 100 ppm was determined as 0%.
For `CC(C)O[Si](Cn1ccnc1)(OC(C)C)c1ccccc1` [(1H-Imidazol-1-ylmethyl)phenylbis(2-propoxy)silane], the pest or weed control at 100 ppm was found to be 0%.
Same read-out and setting: the same measure for `COc1cccc([Si](C)(C)Cn2ccnc2)c1OC` [(2,3-Dimethoxyphenyl)(1H-imidazol-1-ylmethyl)dimethylsilane]: 0%.
As to `C[Si](Cn1ccnc1)(c1ccccc1)c1ccc(Cl)cc1Cl` (centres unmarked) [(2,4-Dichlorophenyl)(1H-imidazol-1-ylmethyl)methyl(phenyl)silane], the pest or weed control at 100 ppm was found to be 90%.
As for `C[Si](Cn1ccnc1)(c1ccc(Cl)cc1)c1ccccc1Cl` (centres unmarked) [(2-Chlorophenyl)(4-chlorophenyl)(1H-imidazol-1-ylmethyl)methylsilane], the pest or weed control at 100 ppm was determined as 100%.
For `CC(n1ccnc1)[Si](C)(c1ccc(F)cc1)c1ccc(F)cc1` (centres unmarked) [bis(4-Fluorophenyl)methyl[1-(1H-imidazol-1-yl)ethyl]silane], the pest or weed control at 100 ppm was 0%.

The subject of a further assay is Helminthosporium maydis. Put plainly: southern corn leaf blight control on corn seedlings. It counts as in vivo. As to conditions: Bipolaris maydis, 168 h. How it is done:
Compounds of the previous example were again dissolved in acetone in an amount equal to 6% of the final volume and then suspended at a concentration of 100 ppm in purified water containing 250 ppm of the surfactant TREM 014 (polyhydric alcohol esters). This suspension was sprayed to the point of run-off on corn seedlings. The following day, the plants were inoculated with a spore suspension of Helminthosporium maydis, causal agent of southern corn leaf blight, and incubated in a saturated humidity chamber at 20° for 24 hours and then in a growth room for an additional 7 days, when disease ratings were made. Treated plants from successful treatments had few lesions while the untreated plants had numerous lesions on each leaf.
With `COc1ccc([Si](C)(Cn2ccnc2)c2ccc(OC)cc2)cc1` [(1H-Imidazol-1-ylmethyl)[bis(4-methoxyphenyl)]methylsilane], the pest or weed control at 100 ppm came out at 0%.
As to `CC(C)O[Si](C)(Cn1ccnc1)c1ccccc1` (centres unmarked) [(1H-Imidazol-1-ylmethyl)methyl(phenyl)(2-propoxy)silane], the pest or weed control at 100 ppm turned out to be 0%.
The molecule `CC(C)O[Si](Cn1ccnc1)(OC(C)C)c1ccccc1` [(1H-Imidazol-1-ylmethyl)phenylbis(2-propoxy)silane] showed a pest or weed control at 100 ppm of 0%.
`COc1cccc([Si](C)(C)Cn2ccnc2)c1OC` [(2,3-Dimethoxyphenyl)(1H-imidazol-1-ylmethyl)dimethylsilane] gave a pest or weed control at 100 ppm of 0%.
`C[Si](Cn1ccnc1)(c1ccccc1)c1ccc(Cl)cc1Cl` (centres unmarked) [(2,4-Dichlorophenyl)(1H-imidazol-1-ylmethyl)methyl(phenyl)silane] displayed a pest or weed control at 100 ppm of 0%.
For the molecule `C[Si](Cn1ccnc1)(c1ccc(Cl)cc1)c1ccccc1Cl` (centres unmarked) [(2-Chlorophenyl)(4-chlorophenyl)(1H-imidazol-1-ylmethyl)methylsilane], the pest or weed control at 100 ppm was 0%.

The subject of a further assay is Erysiphe cichoracearum. Put plainly: cucumber powdery mildew control on cucumber seedlings. Type of assay: in vivo. As to conditions: Golovinomyces cichoracearum, 168 h, 7 days. How it is done: Compounds of the previous examples were again dissolved in acetone in an amount equal to 6% of the final volume and then suspended at a concentration of 100 ppm in purified water containing 250 ppm of the surfactant TREM 014 (polyhydric alcohol esters). This suspension was sprayed to the point of run-off on cucumber seedlings. The following day, the plants were inoculated with a spore suspension of the fungus Erysiphe cichoracearum, causal agent of cucumber powdery mildew, and incubated in a growth room for 7 days. Disease ratings were then made. Treated plants from successful treatments had little or no powdery mildew in contrast to untreated plants which were covered with powdery mildew.
Molecule `COc1ccc([Si](C)(Cn2ccnc2)c2ccc(OC)cc2)cc1` [(1H-Imidazol-1-ylmethyl)[bis(4-methoxyphenyl)]methylsilane] yielded a pest or weed control at 100 ppm of 50%.
With `CC(C)O[Si](C)(Cn1ccnc1)c1ccccc1` (centres unmarked) [(1H-Imidazol-1-ylmethyl)methyl(phenyl)(2-propoxy)silane], the pest or weed control at 100 ppm was determined as 90%.
As for `CC(C)O[Si](Cn1ccnc1)(OC(C)C)c1ccccc1` [(1H-Imidazol-1-ylmethyl)phenylbis(2-propoxy)silane], the pest or weed control at 100 ppm is 0%.
Still for that read-out and setting: the result for `COc1cccc([Si](C)(C)Cn2ccnc2)c1OC` [(2,3-Dimethoxyphenyl)(1H-imidazol-1-ylmethyl)dimethylsilane] reads 100%.
`C[Si](Cn1ccnc1)(c1ccccc1)c1ccc(Cl)cc1Cl` (centres unmarked) [(2,4-Dichlorophenyl)(1H-imidazol-1-ylmethyl)methyl(phenyl)silane] had a pest or weed control at 100 ppm of 100%.
Still for that read-out and setting: the result for `C[Si](Cn1ccnc1)(c1ccc(Cl)cc1)c1ccccc1Cl` (centres unmarked) [(2-Chlorophenyl)(4-chlorophenyl)(1H-imidazol-1-ylmethyl)methylsilane] reads 100%; that for `CC(n1ccnc1)[Si](C)(c1ccc(F)cc1)c1ccc(F)cc1` (centres unmarked) [bis(4-Fluorophenyl)methyl[1-(1H-imidazol-1-yl)ethyl]silane], 100%.

The subject of another assay is Pyricularia oryzae. Put plainly: whole plant or invertebrate. It counts as in vivo. The settings on record: 168 h, read-out: % Control of Rice Blast.
With `COc1ccc([Si](C)(Cn2ccnc2)c2ccc(OC)cc2)cc1` [(1H-Imidazol-1-ylmethyl)[bis(4-methoxyphenyl)]methylsilane], the pest or weed control at 100 ppm was 0%.
For `CC(C)O[Si](C)(Cn1ccnc1)c1ccccc1` (centres unmarked) [(1H-Imidazol-1-ylmethyl)methyl(phenyl)(2-propoxy)silane], the pest or weed control at 100 ppm is 0%.
For the molecule `COc1cccc([Si](C)(C)Cn2ccnc2)c1OC` [(2,3-Dimethoxyphenyl)(1H-imidazol-1-ylmethyl)dimethylsilane], the pest or weed control at 100 ppm is 0%.
For the molecule `C[Si](Cn1ccnc1)(c1ccccc1)c1ccc(Cl)cc1Cl` (centres unmarked) [(2,4-Dichlorophenyl)(1H-imidazol-1-ylmethyl)methyl(phenyl)silane], the pest or weed control at 100 ppm was found to be 0%.
Turning to `CC(n1ccnc1)[Si](C)(c1ccc(F)cc1)c1ccc(F)cc1` (centres unmarked) [bis(4-Fluorophenyl)methyl[1-(1H-imidazol-1-yl)ethyl]silane], the pest or weed control at 100 ppm was found to be 0%.

The next assay has as its system Venturia inaequalis. Put plainly: apple scab control on apple seedlings. Type of assay: in vivo. The settings on record: Venturia inaequalis; 100 ppm. The procedure:
as §1, with “apple” for “wheat”, “the fungus Venturia inaequalis,” for “Puccinia recondita var. tritici,”, “apple scab,” for “wheat leaf rust,”, “10-12 days.” for “7 days, when disease ratings were made.”, “apple scab lesions when compared to” for “rust pustules while the”, “which were covered with scab lesions.” for “had numerous rust pustules on each leaf.”
The molecule `COc1ccc([Si](C)(Cn2ccnc2)c2ccc(OC)cc2)cc1` [(1H-Imidazol-1-ylmethyl)[bis(4-methoxyphenyl)]methylsilane] had a pest or weed control at 100 ppm of 50%.
In turn, `CC(C)O[Si](C)(Cn1ccnc1)c1ccccc1` (centres unmarked) [(1H-Imidazol-1-ylmethyl)methyl(phenyl)(2-propoxy)silane] registered a pest or weed control at 100 ppm of 0%.
Molecule `CC(C)O[Si](Cn1ccnc1)(OC(C)C)c1ccccc1` [(1H-Imidazol-1-ylmethyl)phenylbis(2-propoxy)silane] returned a pest or weed control at 100 ppm of 70%.
The same measure, in the same setting: the same measure for `COc1cccc([Si](C)(C)Cn2ccnc2)c1OC` [(2,3-Dimethoxyphenyl)(1H-imidazol-1-ylmethyl)dimethylsilane]: 0%; for `C[Si](Cn1ccnc1)(c1ccccc1)c1ccc(Cl)cc1Cl` (centres unmarked) [(2,4-Dichlorophenyl)(1H-imidazol-1-ylmethyl)methyl(phenyl)silane]: 80%; for `C[Si](Cn1ccnc1)(c1ccc(Cl)cc1)c1ccccc1Cl` (centres unmarked) [(2-Chlorophenyl)(4-chlorophenyl)(1H-imidazol-1-ylmethyl)methylsilane]: 80%.
Still for that read-out and setting: the same measure for `CC(n1ccnc1)[Si](C)(c1ccc(F)cc1)c1ccc(F)cc1` (centres unmarked) [bis(4-Fluorophenyl)methyl[1-(1H-imidazol-1-yl)ethyl]silane]: 100%.
